Results from patent publication US20170199175A1, “DEVICE AND METHOD FOR ASSESSING CELL CONTRACTION” (The Governing Council of the University of Toronto, priority 2014, published 2017).
“Also recorded” adds a separate entry of the source.

test system: fibroblasts; assay: Wrinkling of PDMS silicone elastomer film by contractile fibroblasts (live videomicroscopy, kymograph analysis); format: cell-based, rat; conditions: 1:100 PDMS film, plasma + APTES + paraformaldehyde + collagen; LPA 10 μM, cytochalasin D 1-10 μM, Y27632 10 μM
Description: Primary rat lung myofibroblasts and subcutaneous fibroblasts (SCF) were derived from explants and cultured from passage 2-7. All cells, including lineage aortic smooth muscle cells (A7r5) and rat embryonic fibroblasts (REF-52) were cultured in DMEM (Gibco-BRL, Basel, CH), containing 10% FCS and antibiotics. Cytochalasin D (Sigma) was used at 1-10 μM, blebbistatin (Calbiochem, Darmstadt, Germany) at 10 μM, Y27632 (Calbiochem) at 10 μM and lysophosphatic acid (LPA) (Sigma) at 10 μM. For FA maturation analysis, REF-52 were stably transfected with β3 integrin-GFP (16), full-length GFP-paxillin (Zamir et al, 2000), and α-SMA-GFP (Clement et al., 2005), using Fugene 6 (Roche, Reinach, CH).
To reduce pipetting errors and to ameliorate the mixing process, curing agent can be pre-diluted in toluene without changing the elastic properties of the polymerized material. PDMS films of 200 μm thickness were produced by distributing the respective volume with a pipette tip onto glass coverslips (#0, Karl Hecht KG, Sondheim, Germany) at the bottom of homemade observation chambers or on standard culture dishes. Substrates were degassed in a desiccator and polymerized for minimum 3 d at RT. Polymerized films were kept at RT for up to two months without changing compliance. Alternative polymerization protocols using higher curing temperatures are possible but will have an influence on the elastic modulus of the film (Lee et al., 2004). […]
Confocal images of fixed specimen were acquired using a 40× oil immersion objective (HC PL APO, NA 1.25-0.75, Leica, Glattbrugg, CH), mounted on an inverted confocal microscope (DM IRE2 with a laser scanning confocal head TCS SP2 AOBS, Leica). […] Phase contrast sequences were taken at a rate of 1 frame/min and live fluorescence images every 30 min using 20× (Plan-Apochromat, Ph2, NA 0.5) and 40× (Plan-Neofluar, Ph3, NA 1.3 oil immersion, Zeiss) objectives. […]

Molecule | cell contraction (number and extension of wrinkles)
C[C@@H](N)[C@H]1CC[C@H](C(=O)Nc2ccncc2)CC1 [Y27632] | completely abolished
C=C1[C@@H](C)[C@H]2[C@H](Cc3ccccc3)NC(=O)[C@]23[C@H](OC(C)=O)/C=C/[C@@](C)(O)C(=O)[C@@H](C)C/C=C/[C@H]3[C@@H]1O [cytochalasin D, Cytochalasin D] | completely abolished; also recorded: loss of cell contraction
lysophosphatic acid [LPA] | increased cell contraction

test system: hES2-derived cardiomyocytes; assay: Wrinkling-based contraction analysis of periodically contracting cardiomyocyte colonies on silicone elastomer film; format: cell-based, human; conditions: live treatment in three concentrations (high, medium, low): ouabain and nifidepine 0.3, 3, 30 μM; isoproterenol and blebbistatin 0.1, 1, 10 μM
Description: To meet standard requirements on product shelf life and ease-of-shipping, the surface treatment method was refined to provide the film surface with a dry layer of adhesive protein. The improved treatment process (“APTES/EDAC”) comprises sequential oxidation with plasma oxygen, 1% APTES for 90 min, 100 μg/ml 1-Ethyl-3-(3-dimethylaminopropyl) carbodiimide (EDAC) for 10 min (to replace the previous paraformaldehyde step), protein wet coating, and air drying. Fibronectin and gelatin were used as most widely applied proteins to promote cardiomyocyte adhesion.
The number of beating colonies was at least 20-30/well across all protein coatings following APTES/EDAC treatment but <10 beating colonies/well without APTES/EDAC functionalization (FIG. 17C). APTES/EDAC functionalization obtained wrinkles which were visible in ˜50% of all beating colonies (FIG. 17D). APTES/EDAC treated surfaces with fibronectin (2 μg/ml) and gelatin (2 and 20 μg/ml) coating were selected to optimize cell densities for contraction analysis. Cardiomyocyte seeding densities were reduced from 50,000 to 25,000, 10,000 and 5,000 cells/cm^2 and wrinkling percentages were quantified. With cell density adaptation, the percentage of wrinkling among beating colonies reached 80-90% across all protein coatings with 10,000-25,000 cells/cm^2. […] Too low density reduced the number of beating colonies and percentage of wrinkling cells (FIG. 17E). For all further experiments, the plasma oxidized and APTES/EDAC-treated biocompatible silicone elastomers of 96-wells were coated with gelatin at a concentration of 2 μg/ml and provided with 10,000 cells/cm^2 before wrinkling was assessed after 2 days.
Cardiomyocyte contraction was assessed by recording image sequences over at least 15 s with an image acquisition rate of 10 frames/s. Acquisition was performed well-by-well on four image fields per well using the 10× objective of an inverted microscope with motorized stage and fully automated stage/acquisition control. The setup was chosen to provide conditions equivalent to commercially available HTS imaging stations. […] When comparing the signals generated by contracting cardiomyocytes on films with the competitive method of shape analysis on stiff culture substrates, wrinkling analysis delivered a 10-20-fold higher signal (FIG. 18).
Referring to FIG. 28, periodically contracting cardiomyocyte colonies were recorded and live treated with cardiomyocyte affecting drugs in three concentrations (high, medium, low). Ouabain (0.3, 3, 30 μM) increased contraction amplitude at unchanged frequency, nifidepine (0.3, 3, 30 μM) decreased contraction amplitude and increased frequency, isoproterenol (0.1, 1, 10 μM) increased contraction frequency and amplitude, and blebbistatin (0.1, 1, 10 μM) decreased contraction amplitude and frequency.

Molecule | contraction (beating) amplitude | contraction (beating) frequency
C[C@@H]1O[C@@H](O[C@H]2C[C@@H](O)[C@]3(CO)[C@H]4[C@H](O)C[C@]5(C)[C@@H](C6=CC(=O)OC6)CC[C@]5(O)[C@@H]4CC[C@]3(O)C2)[C@H](O)[C@H](O)[C@H]1O [Ouabain] | increased | unchanged
Cc1ccc2c(c1)C(=O)C1(O)CCN(c3ccccc3)C1=N2 (stereo not drawn) [blebbistatin] | decreased | decreased
CC(C)NCC(O)c1ccc(O)c(O)c1 (stereo not drawn) [isoproterenol] | increased | increased
COC(=O)C1=C(C)NC(C)=C(C(=O)OC)C1c1ccccc1[N+](=O)[O-] [nifidepine] | decreased | increased

test system: cardiomyocytes; assay: not given; conditions: benchmark drugs, Yokoo et al. 2009 / Gai et al. 2009; cited from earlier work

Molecule | frequency of beating
CNCC(O)c1ccc(O)c(O)c1 (stereo not drawn) [adrenaline] | increase
COc1ccc([C@@H]2Sc3ccccc3N(CCN(C)C)C(=O)[C@@H]2OC(C)=O)cc1 [diltiazem] | decrease
O=C(NCC1CCCCN1)c1cc(OCC(F)(F)F)ccc1OCC(F)(F)F (stereo not drawn) [felcainide] | decrease
CC(C)NCC(O)c1ccc(O)c(O)c1 (stereo not drawn) [isoproterenol] | increase
CNC[C@H](O)c1cccc(O)c1 [phenylephrine] | increase
CCN(CC)CCNC(=O)c1ccc(N)cc1 [procainamide] | decrease
COc1ccc(CCN(C)CCCC(C#N)(c2ccc(OC)c(OC)c2)C(C)C)cc1OC (stereo not drawn) [verapamil] | decrease
